# From PMC10004634 (PLOS ONE, 2023)
# What was measured:
# HUNK = target: T1, HUNK (Homo sapiens, UniProt P57058); assay: KINOMEscan binding assay; set-up: purchased Eurofins DiscoverX (KINOMEscan scanMAX service); details: 300 nM; read-out: inhibition of kinase binding (KINOMEscan)
# T1 sequence (P57058 1-714): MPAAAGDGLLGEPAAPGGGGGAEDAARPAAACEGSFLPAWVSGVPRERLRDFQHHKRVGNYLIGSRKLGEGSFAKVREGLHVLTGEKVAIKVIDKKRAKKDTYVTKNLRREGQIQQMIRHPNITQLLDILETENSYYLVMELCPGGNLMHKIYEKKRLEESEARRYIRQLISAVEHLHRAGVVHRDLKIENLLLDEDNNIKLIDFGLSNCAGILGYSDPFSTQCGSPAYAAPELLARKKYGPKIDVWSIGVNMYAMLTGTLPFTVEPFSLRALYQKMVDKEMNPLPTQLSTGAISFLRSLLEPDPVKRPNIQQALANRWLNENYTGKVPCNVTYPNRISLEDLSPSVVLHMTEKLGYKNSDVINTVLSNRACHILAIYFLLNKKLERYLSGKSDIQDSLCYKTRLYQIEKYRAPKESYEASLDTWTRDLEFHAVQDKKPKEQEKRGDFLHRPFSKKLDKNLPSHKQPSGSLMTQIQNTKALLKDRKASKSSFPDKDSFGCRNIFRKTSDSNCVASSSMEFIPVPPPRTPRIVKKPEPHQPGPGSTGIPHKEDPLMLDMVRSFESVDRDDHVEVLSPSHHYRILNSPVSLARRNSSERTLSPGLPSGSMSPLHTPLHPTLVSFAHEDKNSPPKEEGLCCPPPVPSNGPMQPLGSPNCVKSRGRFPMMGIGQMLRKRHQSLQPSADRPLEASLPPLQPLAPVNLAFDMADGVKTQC
# BTK = BTK (Homo sapiens, UniProt Q06187); assay: KINOMEscan binding assay; details: 300 nM; read-out: inhibition of kinase binding (KINOMEscan)
# TMD8 xenograft tumor = assay: Gene expression microarray analysis of TMD8 xenograft tumors
# Protocol: The TMD8 xenograft model was also used for microarray analysis. […] After 21 days of drug administration and 24 h after the final dose, the mice underwent laparotomy under isoflurane anesthesia and were sacrificed by exsanguination. Tumors were collected and quickly frozen with liquid nitrogen. RNA extraction and gene expression microarray analysis were performed at LSI Medience Corporation (Tokyo, Japan) using the miRNeasy® mini kit (Qiagen, Hilden, Germany) and the Low Input Quick Amp Labeling Kit (Agilent Technologies, Santa Clara, CA, USA) according to the manufacturers’ instructions. The DNA microarray results were processed using Expressionist Analyst (GeneData, Basel, Switzerland) and Excel.
# U-2932 cells = assay: Cell viability assay (CellTiter-Glo); assay type: cell-based; details: Homo sapiens, U2932, 72 h
# Protocol: (§1) After incubation for 72 h at 37°C and 5% CO2/95% air, relative light units (RLU) were measured with the CellTiter-Glo Luminescent Cell Viability Assay (Promega, Madison, WI, USA). […] GraphPad Prism (version 5.01J or 5.04; GraphPad Software, Inc., San Diego, CA, USA) and its base settings were used for initial values and convergence conditions.
# TMD8 cells = assay: Cell viability assay (CellTiter-Glo); assay type: cell-based; details: Homo sapiens, 72 h
# Protocol: as §1
# [1] = system: other BioMAP systems such as the T-cell and fibroblast activation systems; assay: BioMAP Diversity PLUS profiling, other evaluation systems; assay type: cell-based, human; details: 120, 370, 1100, 3300 nM
# Protocol: In brief, cultures with one or more primary cell types from healthy human donors were treated with sets of stimulators specific to the cell subsets, and the optimized biomarker readouts for each system were measured by ELISA and other techniques, as listed in S1 Table. The assays included positive and negative controls as well as vehicle control. Results are presented as the log-transformed ratio of biomarker readouts for tirabrutinib-treated samples to vehicle controls.
# [2] = at 100 nM, read-out: maximum growth inhibition rate
# [3] = read-out: IC50 of growth inhibition
# Chain of BTK (Q06187 whole entry): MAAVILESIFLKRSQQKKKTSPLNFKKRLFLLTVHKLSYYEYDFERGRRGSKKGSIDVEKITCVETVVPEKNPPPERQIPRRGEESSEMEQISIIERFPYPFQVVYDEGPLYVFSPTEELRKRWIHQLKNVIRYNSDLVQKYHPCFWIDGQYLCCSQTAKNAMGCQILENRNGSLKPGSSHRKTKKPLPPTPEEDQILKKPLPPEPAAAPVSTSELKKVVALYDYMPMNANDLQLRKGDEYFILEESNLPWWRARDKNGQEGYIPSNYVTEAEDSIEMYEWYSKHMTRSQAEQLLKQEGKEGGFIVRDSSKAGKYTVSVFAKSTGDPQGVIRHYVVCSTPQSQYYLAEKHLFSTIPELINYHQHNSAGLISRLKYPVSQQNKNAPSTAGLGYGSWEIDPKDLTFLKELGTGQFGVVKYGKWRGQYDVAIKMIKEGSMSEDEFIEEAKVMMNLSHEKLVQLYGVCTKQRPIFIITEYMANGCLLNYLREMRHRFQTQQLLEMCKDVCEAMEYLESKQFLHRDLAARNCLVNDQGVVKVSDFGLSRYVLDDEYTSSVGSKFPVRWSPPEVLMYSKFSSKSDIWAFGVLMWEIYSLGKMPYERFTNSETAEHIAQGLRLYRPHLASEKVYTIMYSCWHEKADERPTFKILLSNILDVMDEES
compound,measurement,setting,value
CC#CC(=O)N1CC[C@@H](n2c(=O)n(-c3ccc(Oc4ccccc4)cc3)c3c(N)ncnc32)C1 [Tirabrutinib],inhibition at 0.3 µM,HUNK,89%
same,inhibition at 0.3 µM,BTK,97%
same,number of downregulated probes,"TMD8 xenograft tumor; 10 mg/kg BID 21 days vs vehicle, fold change <0.5, P < 0.01",575
same,number of upregulated probes,"TMD8 xenograft tumor; 10 mg/kg BID 21 days vs vehicle, fold change >2, P < 0.01",549
same,PRDM1 expression,"TMD8 xenograft tumor; TMD8 xenograft, tirabrutinib vs vehicle",repressed
same,inhibition at 0.1 µM,U-2932 cells; [2],30.8%
same,IC50,U-2932 cells; [3],27.6 nM
same,inhibition at 0.1 µM,TMD8 cells; [2],98.6%
same,IC50,TMD8 cells; [3],3.59 nM
same,effect in other BioMAP evaluation systems,[1],no significant effect
